# Read-outs that look alike come from different tables or passages of the source.
# Tests used:
# [1] = test system: HT-29 (colorectal carcinoma); assay: In vitro cytotoxic activity (GI50), method (b), propidium iodide; assay type: cell-based; settings: Homo sapiens, 96 hrs
# Procedure: (§1) Row H was filled wih medium only (150 μL, negative control-medium).
# [2] = test system: MDA-MB-231 (mammary gland adenocarcinoma); assay: as above; assay type: cell-based; settings: Homo sapiens, 96 hrs
# Procedure: as §1
# [3] = test system: PC-3 (prostate adenocarcinoma); assay: as above; assay type: cell-based; settings: 96 hrs
# Procedure: as §1
# SF268 (CNS) [4] = assay: as above; assay type: cell-based; settings: Homo sapiens, SF-268, 96 hrs
# Procedure: as §1
# [5] = test system: HT-29, SF-268, PC-3, MDA-MB-231; assay: Average GI50 over the four cell lines, method (b); assay type: cell-based; settings: for GI50: values > 30 not considered
# Procedure: as §1
# [6] = Pharmacokinetic profile, plasma concentrations by LC/MS/MS; assay type: in vivo, female Crl: CD1 mice; settings: 30 mg/kg; for half-life: plasma; for AUC / Cmax: mice plasma; for Cmax: read-out: observed Cmax
# Procedure: (§2) Compounds 1 and 2 were separately dissolved in ethanol (5%), Polysorbate 80 (15%), PEG 400 (5%) and dextrose (5%) at a final concentration of 6 mg/ml (for all parenteral administration routes). For oral administration, Compound 1 was solubilized in Cremophor® EU Ethanol (50%:50%) at a final concentration of 6 mg/ml. Prior to dosing, animals (female Crl: CD1 mice; 6 weeks of age, 22-24 g) were weighed, randomly selected and assigned to the different treatment groups. Compound 1 was administered by the intravenous (iv), subcutaneous (sc), intraperitoneal (ip), or oral (po) route to the assigned animals. Compound 2 was administered by the intravenous (iv), or intraperitoneal (ip) route to the assigned animals. The dosing volume of Compounds 1 and 2 was 5 mL per kg body weight. Animals were anesthetized with 5% isoflurane prior to bleeding. Blood was collected into microtainer tubes containing the anticoagulant K2EDTA by cardiac puncture from each of 4 animals per bleeding timepoint (2 min, 5 min, 15 min, 30 min, 1 h, 2 h, 4 h and 8 h). Following collection, the samples were centrifuged and the plasma obtained from each sample was recovered and stored frozen (at approximately −80° C.) pending analysis. At the 5 min and 30 min time points, the following organs were harvested from each animal: brain, lungs, skeletal muscle, fat tissue, kidneys, spleen, thymus and liver. Tissues were frozen (at approximately −80° C.) pending analysis. Samples were analysed by LC/MS/MS.
# Plasma values of Compounds 1 and 2 falling below the limit of quantitation (LOQ) were set to zero. […] The following pharmacokinetic parameters were calculated: area under the plasma concentration versus time curve from time zero to the last measurable concentration time point (AUC0-t), area under the plasma concentration versus time curve extrapolated to infinity (AUCinf), maximum observed plasma concentration (Cmax), time of maximum plasma concentration (tmax), apparent first-order terminal elimination rate constant (kel), apparent first-order terminal elimination half-life will be calculated as 0.693/kel (t1/2). The systemic clearance (CL) of Compound 1 after intravenous administration was calculated using Dose/AUCinf. Pharmacokinetic parameters were calculated using Kinetica™ 4.1.1 (InnaPhase Corporation, Philadelphia, Pa.).
# [7] = test system: HT-29 (colorectal carcinoma); assay: In vitro cytotoxic activity (GI50), method (a), propidium iodide; assay type: cell-based; settings: Homo sapiens, HT-29; method (a), 96 hours; read-out: HT-29 (GI50 μM)
# Procedure: (§3) Compounds were dissolved at 10 mM in DMSO. Dilution in vehicle to concentrations of 30, 10, 3, 1 and 0.3 μM were prepared immediately before assays. Depending on the cell line's growth characteristics, 4000-10000 cells were plated in two 96-wells pates (day 0) and incubated for 16 hours. The following day, propidium iodide was added to one of the two plates and fluorescence measured (Tz). Test compounds were added to the second plate, as well as vehicle control, and cells further incubated for 96 hours. Each compound was tested at each concentration and in triplicates. The equivalent cell number was determined after adding propidium iodide by measuring the signal by fluorescence (C for control).
# [8] = test system: MDA-MB-231 (mammary gland adenocarcinoma); assay: as above; assay type: cell-based; settings: Homo sapiens, MDA-MB-231; method (a), 96 hours; read-out: MDA-MB-231 (GI50 μM)
# Procedure: as §3
# [9] = test system: PC-3 (prostate adenocarcinoma); assay: as above; assay type: cell-based; settings: method (a), 96 hours; read-out: PC-3 (GI50 μM)
# Procedure: as §3
# SF268 (CNS) [10] = assay: as above; assay type: cell-based; settings: Homo sapiens, SF-268; method (a), 96 hours; read-out: SF-268 (GI50 μM)
# Procedure: as §3
# [11] = Tissue concentrations 30 min after administration; assay type: in vivo, female Crl: CD1 mice; settings: 30 mg/kg
# Procedure: as §2, with “At the 5 min and 30 min time points, the following organs were harvested from each animal: brain, lungs, skeletal muscle, fat tissue, kidneys, spleen, thymus and liver. Tissues were frozen (at approximately −80° C.) pending analysis.” left out, “LC/MS/MS. […]” for “LC/MS/MS.”
# [12] = female, Crl: CD1, mouse, iv, read-out: AUC
SMILES,GI50 [1] [µM],GI50 [2] [µM],GI50 [3] [µM],GI50 (SF268 (CNS) [4]) [µM],GI50 [5] [µM],"Cmax ([6]; female, Crl: CD1, mouse, ip) [µg/mL]","AUC [6, 12] [µM·h]","Cmax ([6]; female, Crl: CD1, mouse, iv) [µg/mL]",other results
"CC(C)=CCC/C(C)=C/CC/C(C)=C/CN1C(=O)c2cccc(O)c2N(C)c2c(O)cc(O)cc21 [Compound 2, 10-farnesyl-4,6,8-trihydroxy-5-methyl-5,10-dihydro-dibenzo[b,e][1,4]diazepin-11-one]",0.65,0.24,0.45,0.12,0.36,5.8,92.1,105,"anticancer activity compared with Compound 1 ([5]; four cell lines): better anticancer activity than Compound 1; half-life ([6]; female, Crl: CD1, mouse, ip, IP administration, read-out: half life (t1/2)): > 40 h; half-life ([6]; female, Crl: CD1, mouse, iv, IV administration, read-out: half life (t1/2)): > 40 h; AUC ([6]; female, Crl: CD1, mouse, ip, read-out: AUC): 58.8 µM·h"
"CC(C)=CCC/C(C)=C/CC/C(C)=C/CN1C(=O)c2cccc(O)c2Nc2c(O)cc(O)cc21 [Compound 1, 10-farnesyl-4,6,8-trihydroxy-5,10-dihydrodibenzo[b,e][1,4]diazepin-11-one]",9.33,3.18,3.76,1.55,4.45,2.25,40.4,130,"GI50 [7]: 11.2 µM; GI50 [8]: 1.79 µM; GI50 [9]: 1.95 µM; GI50 (SF268 (CNS) [10]): 1.96 µM; half-life ([6]; female, Crl: CD1, mouse, iv, I.V., read-out: half life t1/2 α): 0.0767 h; half-life ([6]; female, Crl: CD1, mouse, iv, I.V., read-out: half life t1/2 β (converted)): 2.56 h; AUC ([6]; ip): 9.5 ˜M·h; drug levels after oral administration ([6]; oral): moderate but sustained drug levels; orally bioavailable level ([6]; oral): 5-8%; tissue distribution ([11]; iv and ip dosing): well distributed; tissue levels ([11]; sc dosing, compared with ip): significantly lower"

# — US20060079512A1, “Dibenzodiazepinone analogues, processes for their production and their use as pharmaceuticals” (Ecopia BioSciences, Inc., priority 2003, published 2006)
